# Reference: ChEMBL document CHEMBL1201862, “PubChem BioAssay data set” (2004)
# Active and inactive are the calls of the source.
# Tests used:
# [1] = target: Eukaryotic translation initiation factor 4E (Mus musculus, UniProt P63073); experiment: blockers of eIF4G binding by eIF4E – biochemical, TR-FRET, dose response (AID 855); assay type: functional;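 also: potency for disrupting eIF4E binding to eIF4GI seen as loss of FRET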
# [2] = target: Ras and Rab interactor 1/Tyrosine-protein kinase ABL1 (Homo sapiens, UniProt P00519+Q13671); assay type: functional;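 also: biochemical TR-FRET dose-response test measuring inhibition of binding between Rin1 and Abl proteins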
# Escherichia coli = experiment: microbe, parasite or virus in culture
# Paired box protein Pax-8 = Paired box protein Pax-8 (Homo sapiens, UniProt Q06710); experiment: PAX8 transcriptional activity inhibition in RMG-I – RMG-I cells, luciferase, cherry-pick, dose response (AID 687027); assay type: functional, cell-based;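 also: luciferase reporter driven by Pax8 target thyroperoxidase promoter measured by SteadyGlo luminescence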
# [3] = general cell-killing toxicity readout – plate reader, dry powder samples, cytotoxicity control for PAX8 inhibitor project, dose response (AID 743021); assay type: functional, cell-based
# [4] = loss of viability in HepG2 cells – cell-based, CellTiter-Glo, cherry-picked, cytotoxicity control for Shn3 inhibitor project, dose response (AID 624134); assay type: functional
# [5] = non-specific 3'UTR reporter inhibition in Clone20-Shn3RL – cell-based, Renilla luciferase, cherry-picked, counter-screen for Shn3 inhibitor project, dose response (AID 624133); assay type: functional
# [6] = reduction of Shn3 3'UTR-driven luciferase in osteoblasts – cell-based, Clone20 osteoblasts, firefly luciferase, cherry-picked, dose response (AID 624132); assay type: functional;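 also: firefly luciferase luminescence from reporter carrying the Shn3 3'UTR in osteoblasts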
# [7] = target: T1, Low molecular weight phosphotyrosine protein phosphatase (Homo sapiens, UniProt P24666); assay type: functional; details: read-out: IC50_Mean;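 also: Dose-response confirmation assay measuring inhibition of LMPTP enzyme activity by fluorescence intensity read-out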
# T1 sequence (P24666 whole entry): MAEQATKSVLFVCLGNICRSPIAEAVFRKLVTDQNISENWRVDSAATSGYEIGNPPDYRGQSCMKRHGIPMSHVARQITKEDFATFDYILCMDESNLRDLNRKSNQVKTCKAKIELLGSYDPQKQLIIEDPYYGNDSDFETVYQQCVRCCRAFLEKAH
# cells [8] = assay type: functional, cell-based
# cells [9] = assay type: functional, cell-based; remark: listed apart in the source
# P388 = experiment: cells; assay type: functional; details: Mus musculus
# P388/ADR = experiment: cells; assay type: functional; details: Mus musculus
# SN12K1 = experiment: cells; assay type: functional; details: Homo sapiens
# 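For EC50 in this document: agonist potency from rise in intracellular calcium fluorescence.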
# Ras and Rab interactor 1/Tyrosine-protein kinase ABL1, sequence (P00519 whole entry): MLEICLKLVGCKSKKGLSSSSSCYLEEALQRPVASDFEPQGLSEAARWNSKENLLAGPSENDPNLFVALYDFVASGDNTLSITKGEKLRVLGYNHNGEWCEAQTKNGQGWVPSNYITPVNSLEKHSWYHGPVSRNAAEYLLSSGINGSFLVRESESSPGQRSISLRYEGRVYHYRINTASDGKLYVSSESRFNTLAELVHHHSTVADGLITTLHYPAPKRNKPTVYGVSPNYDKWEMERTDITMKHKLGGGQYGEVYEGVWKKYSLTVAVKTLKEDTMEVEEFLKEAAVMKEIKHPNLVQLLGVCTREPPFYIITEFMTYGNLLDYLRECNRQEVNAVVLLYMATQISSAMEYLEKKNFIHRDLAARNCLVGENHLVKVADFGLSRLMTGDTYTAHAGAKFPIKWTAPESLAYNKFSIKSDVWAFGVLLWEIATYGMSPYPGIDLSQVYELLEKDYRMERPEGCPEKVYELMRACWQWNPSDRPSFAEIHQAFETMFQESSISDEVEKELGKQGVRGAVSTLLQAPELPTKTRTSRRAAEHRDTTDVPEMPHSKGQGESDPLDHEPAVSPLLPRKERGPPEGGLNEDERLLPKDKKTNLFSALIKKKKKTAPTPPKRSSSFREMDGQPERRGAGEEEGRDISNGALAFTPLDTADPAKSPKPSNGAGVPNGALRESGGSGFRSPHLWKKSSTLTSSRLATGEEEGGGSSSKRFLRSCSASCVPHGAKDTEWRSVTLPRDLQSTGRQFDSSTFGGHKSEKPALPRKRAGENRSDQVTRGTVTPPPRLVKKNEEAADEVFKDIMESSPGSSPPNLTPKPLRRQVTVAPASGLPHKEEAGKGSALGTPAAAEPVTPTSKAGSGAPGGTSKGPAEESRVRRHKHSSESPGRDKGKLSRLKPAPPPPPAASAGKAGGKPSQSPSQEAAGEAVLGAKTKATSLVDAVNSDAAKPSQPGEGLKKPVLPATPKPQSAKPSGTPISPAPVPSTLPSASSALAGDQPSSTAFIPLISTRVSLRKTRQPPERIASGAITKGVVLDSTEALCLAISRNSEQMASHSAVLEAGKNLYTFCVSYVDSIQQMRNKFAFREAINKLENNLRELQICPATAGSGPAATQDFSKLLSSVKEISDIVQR
# Ras and Rab interactor 1/Tyrosine-protein kinase ABL1, sequence (Q13671 whole entry): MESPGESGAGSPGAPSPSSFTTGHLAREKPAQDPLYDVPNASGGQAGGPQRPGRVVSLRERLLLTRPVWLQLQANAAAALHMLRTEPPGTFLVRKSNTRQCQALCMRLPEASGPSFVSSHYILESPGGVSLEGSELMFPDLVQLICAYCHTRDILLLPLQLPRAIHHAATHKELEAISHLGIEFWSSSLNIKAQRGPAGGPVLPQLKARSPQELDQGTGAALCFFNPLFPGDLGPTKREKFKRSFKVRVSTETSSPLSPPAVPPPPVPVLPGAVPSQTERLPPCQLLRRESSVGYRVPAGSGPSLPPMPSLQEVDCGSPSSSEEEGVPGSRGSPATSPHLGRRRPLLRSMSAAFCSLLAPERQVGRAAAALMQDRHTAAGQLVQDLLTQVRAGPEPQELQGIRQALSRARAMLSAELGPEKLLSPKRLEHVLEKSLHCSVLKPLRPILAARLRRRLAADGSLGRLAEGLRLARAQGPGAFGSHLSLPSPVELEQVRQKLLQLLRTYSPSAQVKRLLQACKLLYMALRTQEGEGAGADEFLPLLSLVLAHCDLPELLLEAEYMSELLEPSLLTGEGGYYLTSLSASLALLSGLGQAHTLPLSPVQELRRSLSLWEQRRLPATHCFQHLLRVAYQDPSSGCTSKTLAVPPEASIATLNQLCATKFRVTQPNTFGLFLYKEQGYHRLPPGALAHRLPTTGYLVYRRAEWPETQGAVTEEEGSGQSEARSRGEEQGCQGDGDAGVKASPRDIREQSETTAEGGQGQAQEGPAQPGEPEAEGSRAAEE
# Eukaryotic translation initiation factor 4E, sequence (P63073 whole entry): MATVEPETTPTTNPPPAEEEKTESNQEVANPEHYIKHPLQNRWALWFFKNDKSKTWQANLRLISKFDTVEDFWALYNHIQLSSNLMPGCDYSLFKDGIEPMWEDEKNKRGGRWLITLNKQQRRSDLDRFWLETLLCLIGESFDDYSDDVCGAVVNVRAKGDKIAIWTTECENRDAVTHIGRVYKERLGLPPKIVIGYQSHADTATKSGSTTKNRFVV
# Paired box protein Pax-8, sequence (Q06710 whole entry): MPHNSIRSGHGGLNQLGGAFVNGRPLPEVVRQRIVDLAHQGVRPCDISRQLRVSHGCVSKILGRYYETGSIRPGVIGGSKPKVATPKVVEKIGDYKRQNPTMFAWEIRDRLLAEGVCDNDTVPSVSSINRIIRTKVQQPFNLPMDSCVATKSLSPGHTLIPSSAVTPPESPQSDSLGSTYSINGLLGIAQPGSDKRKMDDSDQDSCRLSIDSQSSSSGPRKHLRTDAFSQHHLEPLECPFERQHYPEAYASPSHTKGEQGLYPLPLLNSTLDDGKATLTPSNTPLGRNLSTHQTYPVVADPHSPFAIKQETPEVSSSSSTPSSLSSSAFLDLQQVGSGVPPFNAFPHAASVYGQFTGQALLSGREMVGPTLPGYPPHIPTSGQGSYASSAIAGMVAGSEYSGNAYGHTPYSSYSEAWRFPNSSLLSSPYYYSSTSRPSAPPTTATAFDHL
smiles,measurement,setting,value
Nc1nnc(CC(=O)N2CCCCC2)s1,IC50,[1],> 64 µM (inactive)
CCOC(=O)CCCCC(=O)c1[nH]c(=O)[nH]c1CSc1nc(C)cc(C)n1,IC50,[2],2.39 µM (active)
CS(=O)(=O)c1ccc(Cl)c(NC(=O)COC(=O)CCc2c[nH]c3ccccc23)c1,AC50,Escherichia coli,31.5 µM (active)
COC1CC2C=C(C)C=CC=CC(=O)NC(c3ccccc3)CC=CCCC(O)CC(O)=C2C1=O (stereo not drawn),AC50,Paired box protein Pax-8,0.673 µM (active)
same,AC50,[3],4.97 µM (active)
same,AC50,[4],3.98 µM (active)
same,AC50,[5],1.48 µM (active)
same,AC50,[6],0.629 µM (active)
COc1ccc(OC)c(N(CCN2C(=O)c3ccccc3C2=O)C(=O)CCl)c1,AC50,Paired box protein Pax-8,0.966 µM (active)
same,AC50,[3],2.34 µM (active)
O=C(c1cc(COc2cccc3cccnc23)on1)N1CCC[C@H]1CO,IC50,[2],2.94 µM (active)
O=C(O)c1ccc(/C=N/NC(=O)c2cc3c(ccc4ccccc43)o2)cc1,IC50,[7],16.2 µM (active)
O=[N+]([O-])c1cccc(-c2ccc(/C=N/n3c(S)nnc3-c3ccccc3)o2)c1,IC50,[1],> 64 µM (inactive)
CN(C)S(=O)(=O)c1ccc(C(=O)NCC(=O)N/N=C/c2ccccc2)cc1,EC50,cells [8],> 29.9 µM (inactive)
same,IC50,cells [9],> 29.9 µM (inactive)
NCc1c(O)ccc2ccccc12,EC50,cells [8],> 29.9 µM (inactive)
same,IC50,cells [9],> 29.9 µM (inactive)
C[C@H](N)C(=O)N[C@@H]1[C@H]2C(=C(O)C[C@@H](O)[C@@H]2O)C(=O)O[C@]1(C)C(Cl)Cl [BACTOBOLIN],GI50,P388,0.0807 µM (active)
same,GI50,P388/ADR,0.303 µM (active)
same,GI50,SN12K1,0.297 µM (active)
O=P1(NCCCl)OCCCN1CCCl (stereo not drawn) [IFOSFAMIDE],GI50,P388,232 µM (inactive)
same,GI50,P388/ADR,215 µM (inactive)
same,GI50,SN12K1,371 µM (inactive)
